Values of other authors in patent US10507204B2, “Pharmaceutical composition comprising amorphous lenalidomide” (SYNTHON B.V., priority 2014, dated 2019).

**Q.** With `Nc1cccc2c1CN(C1CCC(=O)NC1=O)C2=O` (racemic) [Lenalidomide, (RS)-3-(4-Amino-1-oxo 1,3-dihydro-2H-isoindol-2-yl)piperidine-2,6-dione] as the compound, how does the solubility in water read?
**A.** The solubility in water was “slightly soluble”.
